# Source: patent US20150133401A1, “COMBINATION THERAPY INVOLVING A VASCULAR DISRUPTING AGENT AND AN AGENT WHICH TARGETS HYPOXIA” (BIONOMICS LIMITED, priority 2012, published 2015)
# Columns and labels:
# [1] = test system: RENCA (VHL wildtype) orthotopic tumour; experiment: Tumour growth inhibition by weight of RENCA orthotopic tumour bearing kidneys; format: in vivo, Balb/c mice; details: kidneys weighed on Day 10 of treatment; Pazopanib 30 mg/kg p.o. daily, BNC105 16 mg/kg i.v. Days 2 and 9; FIG. 3
# Protocol: FIG. 3 Right kidney weight (mg)±SEM of mice bearing RENCA kidney tumours treated with BNC105P, Pazopanib or BNC105P+Pazopanib.
# RENCA (VHL wildtype) orthotopic tumour bearing kidneys from Balb/c mice were weighed on Day 10 day of treatment (Pazopanib 30 mg/kg, p.o. Daily, BNC105 16 mg/kg i.v. Days 2 and 9).
# [2] = test system: RENCA orthotopic tumour; experiment: TUNEL assay of necrosis in RENCA orthotopic tumour sections; format: in vivo, Balb/c mice; details: 4 hours after dosing BNC105 on Day 9; Bortezomib 0.5 mg/kg iv Days 1, 5, 8; BNC105 32 mg/kg iv Days 2 and 9
# Protocol: RENCA orthotopic tumour bearing kidneys from Balb/c mice were photographed 4 hours after dosing BNC105 on Day 9 of treatment (Bortezomib 0.5 mg/kg iv Days 1, 5, 8, BNC105 32 mg/kg iv Days 2 and 9). Formalin fixed and paraffin embedded sections were stained using a TUNEL assay (Roche) to visualize cell necrosis.
# [3] = test system: tumour endothelial cells (activated) and normal endothelial cells (quiescent); experiment: Selectivity between activated (tumour) and quiescent (normal) endothelial cells; format: cell-based
# From the text: An important aspect of the compounds of formulae I, Ia, Ib, II and III is the combination of the specific C-6 and C-7 substituents together with the C-2 Q-group (especially C-2 methyl) which appears to confer greater potency and selectivity when compared to other structurally related TPI compounds. In these compounds selectivity is not simply reliant on the predisposition of tumour vasculature towards collapse when challenged with the VDA but on a capacity of the VDA to distinguish between tumour endothelial cells and normal endothelial cells. Normal endothelial cells, found in healthy tissues, are in a “quiescent” state and tumour endothelial cells are in an “activated” state.
# [4] = test system: DU-145 prostate carcinoma; experiment: Tumour hypoxia / disruption of tumour vasculature in DU-145 tumours; format: in vivo
# [5] = test system: Colo205 colon carcinoma; experiment: Tumour hypoxia / disruption of tumour vasculature in Colo205 tumours; format: in vivo
# [6] = test system: RENCA (VHL wildtype) orthotopic tumour; experiment: Immunohistochemistry of unfolded protein response markers in RENCA orthotopic tumour sections; format: in vivo, Balb/c mice; details: 24 hours after a single dose i.v. 32 mg/kg
# From the text: (Fast Red detection on hematoxylin)
# [7] = test system: MDA-MB-231 breast carcinoma; experiment: Tumour hypoxia / disruption of tumour vasculature in MDA-MB-231 tumours; format: in vivo
# [8] = test system: Calu-6 lung carcinoma; experiment: Tumour hypoxia / disruption of tumour vasculature in Calu-6 tumours; format: in vivo
# [9] = test system: RENCA renal tumours; experiment: Vascular shutdown and hypoxia response markers in RENCA renal tumours; format: in vivo
# [10] = test system: tumor mass; experiment: Histological changes caused by BNC105 anti-tumor action (tumor necrosis); format: in vivo; details: histology; peripheral regions remain viable
# From the text: Based on investigations on the histological changes caused by BNC105 anti-tumor action, it was established that >95% of the tumor mass becomes necrotic, while peripheral regions remain viable. […] Among these is the angiogenesis growth factor VEGF. The present inventors sought to investigate the potential therapeutic benefit of combining BNC105 with an inhibitor of the VEGF/VEGFR2 signalling pathway.
smiles,measurement,setting,value
"Cc1ccc(Nc2nccc(N(C)c3ccc4c(C)n(C)nc4c3)n2)cc1S(N)(=O)=O [Pazopanib, reference compound]",tumour growth inhibition,[1],19%
"CC(C)C[C@H](NC(=O)[C@H](Cc1ccccc1)NC(=O)c1cnccn1)B(O)O [Bortezomib, reference compound]",tumor necrosis (TUNEL staining),[2],Very little tumor necrosis
"COc1ccc(/C=C\c2cc(OC)c(OC)c(OC)c2)cc1O [Combretastatin A4 (CA4), Combretastatin A4, reference compound]",potency against quiescent versus activated endothelial cells (selectivity),[3],equally potent against quiescent and activated endothelial cells
"COc1cc(C(=O)c2c(C)oc3c(OP(=O)([O-])[O-])c(OC)ccc23)cc(OC)c1OC.[Na+].[Na+] [BNC105P, Disodium 6-methoxy-2-methyl-3-(3,4,5-trimethoxybenzoyl)benzofuran-7-yl phosphate]",tumour hypoxia by disruption of tumour vasculature,[4],increase tumour hypoxia
same,tumour hypoxia by disruption of tumour vasculature,[5],increase tumour hypoxia
same,unfolded protein response markers PERK and phosphorylation of eIF2α,[6],upregulation of unfolded protein response markers
same,tumour hypoxia by disruption of tumour vasculature,[7]; MDA-MB-231 breast carcinoma,increase tumour hypoxia
same,apoptotic cells,[7]; MDA-MB-231 tumours,increase in apoptotic cells
same,blood vessel integrity,[7]; MDA-MB-231 tumours,damage of blood vessel integrity
same,release of angiogenic growth factor VEGF,[7]; MDA-MB-231 tumours,release of the angiogenic growth factor VEGF
same,tumour endothelial cells,[7]; MDA-MB-231 tumours,destruction of tumour endothelial cells
same,tumour hypoxia by disruption of tumour vasculature,[8],increase tumour hypoxia
"COc1cc(C(=O)c2c(C)oc3c(O)c(OC)ccc23)cc(OC)c1OC [BNC105, 2-Methyl-7-hydroxy-3-(3,4,5-trimethoxybenzoyl)-6-methoxybenzofuran]",potency against quiescent versus activated endothelial cells (selectivity),[3],show selectivity towards tumor endothelial cells (activated) over normal endothelial cells (quiescent)
same,vascular shutdown,[9],induced vascular shutdown
same,CXCL12 and MMP-9 levels,[9]; induced hypoxia,increase in CXCL12 and MMP-9
same,"GLUT1, HIF-1a, PERK, eIF2a and VEGF levels",[9]; on vascular shutdown,"increase GLUT1, HIF-1a, PERK, eIF2a and VEGF"
same,tumor mass that becomes necrotic,[10],> 95%
same,tumor necrosis (TUNEL staining),[2],Very little tumor necrosis
same,tumour growth inhibition,[1],21%
